For experiment [1], the system named is Dopamine DBS Cy3–BHQ-1 (Position 1/Adjacent) (DNA, aptamer) AAATACAACAAGAAAAAACTCTCGGGACGACGACCAGTTTGAAGGTTCGTTCGCAGGTGTGGAGTGACGTCGTCCC
The experiment can be described thus: fluorescence melting. The settings on record: 1x PBS, 2 mM MgCl2; derived from two Tm (51.7 ± 0.1, 50.9 ± 0.1) of aptamer–displacement duplex; 50 µM dopamine, pH 8.0.

In experiment [2] the test system is Dopamine DBS BHQ-1/Cy3 (1:1) (DNA, aptamer) AAATACAACAAGAAAAAACTCTCGGGACGACGCCAGTTTGAAGGTTCGTTCGCAGGTGTGGAGTGACGTCGTCCC
The experiment can be described thus: fluorescence melting. The conditions noted are these: 1x PBS, 2 mM MgCl2; pH 8.0; 50 µM dopamine; derived from two Tm (51.0, 50.6); displacement strand 1:1.

For experiment [3], the system named is Dopamine DBS Cy3/BHQ-1 (int.) (DNA, aptamer) AAATACAACAAGAAAAAACTCTCGGGACGACGCCAGTTTGAAGGTTCGTTCGCAGGTGTGGAGTGACGTCGTCCC
The experiment can be described thus: fluorescence melting. The conditions noted are these: 1x PBS, 2 mM MgCl2; pH 8.0; 50 µM dopamine; derived from two Tm (50.9, 50.4); displacement strand 1:4.

Experiment [4] deals with Dopamine DBS Cy3/BHQ-1 (term.) (DNA, aptamer) AAATACAACAAGAAAAAACTCTCGGGACGACGCCAGTTTGAAGGTTCGTTCGCAGGTGTGGAGTGACGTCGTCCC
The experiment can be described thus: fluorescence melting. The conditions noted are these: 1x PBS, 2 mM MgCl2; pH 8.0; 50 µM dopamine; derived from two Tm (51.2, 50.6); displacement strand 1:4.

The test system of experiment [5] is Dopamine DBS Cy3/BHQ-1 (P3) (DNA, aptamer) AAATACAACAAGAAAAAACTCTCGGGACGACGCCAGTTTGAAGGTTCGTTCGCAGGTGTGGAGTGACGTCGTCCC
The experiment is described as follows: fluorescence melting. The conditions noted are these: 1x PBS, 2 mM MgCl2; pH 8.0; 50 µM dopamine; derived from two Tm (50.3, 50.1); displacement strand 1:4.

The subject of experiment [6] is Dopamine DBS Cy3(+T)/BHQ-1 (DNA, aptamer) AAATACAACAAGAAAAAACTCTCGGGACGACGTCCAGTTTGAAGGTTCGTTCGCAGGTGTGGAGTGACGTCGTCCC
The experiment is described as follows: fluorescence melting. The settings on record: 1x PBS, 2 mM MgCl2; pH 8.0; 50 µM dopamine; derived from two Tm (51.6, 50.9); displacement strand 1:4.

Experiment [7] relates to Dopamine DBS Cy3(+T)/BHQ-1 (int.) (DNA, aptamer) AAATACAACAAGAAAAAACTCTCGGGACGACGTCCAGTTTGAAGGTTCGTTCGCAGGTGTGGAGTGACGTCGTCCC
The experiment is described as follows: fluorescence melting. The settings on record: 1x PBS, 2 mM MgCl2; pH 8.0; 50 µM dopamine; derived from two Tm (50.3, 49.9); displacement strand 1:4.

Experiment [8] has as its system Dopamine DBS Cy3(+T)/BHQ-1 (term.) (DNA, aptamer) AAATACAACAAGAAAAAACTCTCGGGACGACGTCCAGTTTGAAGGTTCGTTCGCAGGTGTGGAGTGACGTCGTCCC
The experiment is described as follows: fluorescence melting. The settings on record: 1x PBS, 2 mM MgCl2; pH 8.0; 50 µM dopamine; derived from two Tm (50.8, 50.0); displacement strand 1:4.

The test system of experiment [9] is Dopamine DBS FAM(+T)/BHQ-1 (DNA, aptamer, 6-FAM-modified dT (click, i6-FAMK) at 33) AAATACAACAAGAAAAAACTCTCGGGACGACGTCCAGTTTGAAGGTTCGTTCGCAGGTGTGGAGTGACGTCGTCCC …. The experiment can be described thus: fluorescence melting. The conditions noted are these: 1x PBS, 2 mM MgCl2; pH 8.0; 50 µM dopamine; derived from two Tm (49.1, 48.9); displacement strand 1:4.
For experiment [10], the system named is Dopamine DBS BHQ-1–Cy3 (DNA, aptamer) AAATACAACAAGAAAAAACTCTCGGGACGACGACCAGTTTGAAGGTTCGTTCGCAGGTGTGGAGTGACGTCGTCCC
The experiment is described as follows: fluorescence strand-displacement titration. The conditions noted are these: 1x PBS, 2 mM MgCl2; apparent; pH 8.0, 25 °C; displaced 42-nt 5'-Cy3 strand, 1 eq.

Experiment [11] deals with Dopamine DBS Cy3(+T)–BHQ-1 Terminal (DNA, aptamer) AAATACAACAAGAAAAAACTCTCGGGACGACGTACCAGTTTGAAGGTTCGTTCGCAGGTGTGGAGTGACGTCGTCCC
The experiment can be described thus: fluorescence strand-displacement titration. The settings on record: 1x PBS, 2 mM MgCl2; apparent; pH 8.0, 25 °C; displaced 43-nt strand, 5'-BHQ-1 plus T, 4 eq.

Experiment [12] deals with Dopamine DBS FAM(+T)–BHQ-1 Terminal (DNA, aptamer, 6-FAM-dT (azide click) at 33) AAATACAACAAGAAAAAACTCTCGGGACGACGTACCAGTTTGAAGGTTCGTTCGCAGGTGTGGAGTGACGTCGTCCC
The experiment can be described thus: fluorescence strand-displacement titration. The settings on record: 1x PBS, 2 mM MgCl2; apparent; pH 8.0, 25 °C; displaced 43-nt strand, 5'-BHQ-1 plus T, 4 eq.

The test system of experiment [13] is Dopamine DBS FAM(+T)–BHQ-1 Internal (DNA, aptamer, 6-FAM-dT (azide click) at 33) AAATACAACAAGAAAAAACTCTCGGGACGACGTACCAGTTTGAAGGTTCGTTCGCAGGTGTGGAGTGACGTCGTCCC
The experiment can be described thus: fluorescence strand-displacement titration. The conditions noted are these: 1x PBS, 2 mM MgCl2; apparent; pH 8.0, 25 °C; displaced 42-nt strand, internal BHQ-1, 4 eq.

Experiment [14] deals with Dopamine MAB BHQ-1–FAM (DNA, aptamer) ACGCCAGTTTGAAGGTTCGTTCGCAGGTGTGGAGTGACGT
The experiment can be described thus: fluorescence quenching titration (molecular aptamer beacon). The settings on record: 1x PBS, 2 mM MgCl2; apparent; pH 8.0, 25 °C.

The test system of experiment [15] is Dopamine MAB Cy3–BHQ-2 (DNA, aptamer) ACGCCAGTTTGAAGGTTCGTTCGCAGGTGTGGAGTGACGT
The description is as above. The settings on record: 1x PBS, 2 mM MgCl2; apparent; pH 8.0, 25 °C.

With `NCCc1ccc(O)c(O)c1`, the Tm in experiment [1] was -0.8 °C; in experiment [2] it was -0.4 °C; in experiment [3], -0.5 °C; in experiment [4], -0.6 °C; in experiment [5], -0.2 °C; in [6] it was -0.7 °C. Further, the Tm in experiment [7] was -0.4 °C; in [8], -0.8 °C; in experiment [9], -0.2 °C. Moreover, the Kd in experiment [10] is 95.6 ± 6.7 µM; in [11], 40.1 ± 5.0 µM; in [12] it was 10.2 ± 1.0 µM; in experiment [13], 7.5 ± 0.9 µM; in experiment [14], 5.3 ± 0.8 µM; in [15], 12.4 ± 2.0 µM.

For the origin of these results see article PMC12700101 (2025).
